# Test results from article PMC11040670, “Mechanistic and Kinetic Insights into Cellular Uptake of Biomimetic Dinitrosyl Iron Complexes and Intracellular Delivery of NO for Activation of Cytoprotective HO-1” (JACS Au, 2024).
# Tests used:
# N2a = assay: Intracellular release of NO (DAF-FM fluorescence) in N2a; assay type: cell-based, mouse; conditions: 100 μM DNIC–COOH or 10 μM DNIC–COOMe
# Experimental: Intracellular release of NO by DNIC–COOH was validated using the fluorescence probe 4-amino-5-methylamino-2′,7′-difluorofluorescein diacetate (DAF-FM) in combination with fluorescence analysis techniques. Briefly, the MSC cells (or N2a and HCEC cells) were seeded onto a 96-well black plate at a density of 6 × 10^3 cells/well (or 1 × 10^4 cells/well for N2a and 8 × 10^3 cells/well for HCEC cells) and incubated at 37 °C overnight. On the next day, the MSC cells were first treated with 10 μM of DAF-FM (or 5 μM for N2a and HCEC cells) and incubated at 37 °C for 0.5 h. […] Fluorescence intensity of the cells was then recorded using a microplate reader (SpectraMax iD3, Molecular Devices, San Jose, CA) with an excitation wavelength at 485 nm and an emission wavelength at 525 nm. Three independent experiments were executed to measure the time-dependent change of average fluorescence intensity. Time-dependent change of average fluorescence intensity for the MSC/N2a/HCEC cells with sequential treatment of DAF-FM (10 μM for MSC cells, 5 μM for N2a cells, 5 μM for HCEC cells; 0.5 h) and DNIC–COOMe (2.5 μM for MSC cells, 10 μM for N2a cells, 1 μM for HCEC cells) was determined in a similar manner. […]
# HCEC = assay: Whole-cell EPR: cellular uptake and intracellular formation/decomposition of mononuclear DNIC in HCEC; assay type: cell-based, human; conditions: for tmax for cellular uptake and intracellular transformation (whole-cell EPR): normoxia, 75 μM DNIC–COOH or 1 μM DNIC–COOMe
# Experimental: (§1) Cellular uptake of DNIC–COOH and intracellular formation/decomposition of mononuclear DNICs in MSC/N2a/HCEC cells were investigated using EPR spectroscopy. Briefly, cells were seeded into two (or one) 100 mm dish(es) at a density of 2 × 10^6 cells/dish and incubated at 37 °C overnight. On the next day, cells were treated with 100 μM of DNIC–COOH (or 100 μM of DNIC–COOH to N2a and 75 μM of DNIC–COOH to HCEC) and incubated for 0, 0.5, 1, 2, 3, 4, 8, and 24 h, respectively. After removal of the supernatant solution, cells were washed with DPBS before addition of 1 mL of trypsin (0.05%)/EDTA (0.53 mM) and incubation for 5 min at 37 °C. After the obtained cell suspension solutions from two 100 mm dishes were combined and centrifuged at 100g for 5 min, the supernatant was removed before addition of 100 μL of αMEM to DNIC-treated MSC (or MEM to DNIC-treated N2a and HSFM to DNIC-treated HCEC). This solution was then transferred into EPR quartz tube and frozen in N2(l) before the EPR measurements. For each measured EPR spectrum, double integration was executed to obtain the integrated EPR intensity under each condition. Moreover, time-dependent decay of integrated EPR signal intensity after treatment of DNIC–COOH was fit to pseudo-first-order kinetics in order to determine the intracellular half-life for EPR-active mononuclear DNIC. Three independent experiments were executed to measure the average half-life for intracellular decomposition of EPR-active mononuclear DNIC after treatment with DNIC–COOH at 37 °C. On the other hand, at the time point with maximum integrated EPR signal intensity, spin quantitation of intracellular EPR-active DNICs was performed using mononuclear DNIC [PPN][(NO)2Fe(S5)] as a standard according to the methodology used in the previous work.[50] Cellular uptake of DNIC–COOMe (2.5 μM to MSC, 10 μM to N2a, or 1 μM to HCEC) and intracellular formation/decomposition of EPR-active mononuclear DNICs were investigated using EPR spectroscopy in a similar manner.
# (§2) Studies of cellular uptake mechanisms were investigated using EPR spectroscopy in combination with pretreatments of alternative inhibitors. After the MSC cells were seeded into two (or one) 100 mm dish(es) at a density of 2 × 10^6 cells/dish and incubated at 37 °C overnight, sequential treatments of 50 μM of NEM for 0.5 h and 100 μM of DNIC–COOH for 2 h were performed before the treated MSC cells were collected for EPR measurement following the procedure described above. […]
# MSC = assay: Whole-cell EPR: cellular uptake and intracellular formation/decomposition of mononuclear DNIC in MSC; assay type: cell-based, human; conditions: for tmax for cellular uptake and intracellular transformation (whole-cell EPR): normoxia, 100 μM DNIC–COOH or 2.5 μM DNIC–COOMe
# Experimental: as §1, §2
Compound,tmax for intracellular release of NO (N2a) [h],tmax for cellular uptake and intracellular transformation (whole-cell EPR) (HCEC; HCEC) [h],relative whole-cell EPR signal intensity at gav = 2.03 (control = 100%) (HCEC; MβCD-treated HCEC) [%],relative whole-cell EPR signal intensity at gav = 2.03 (control = 100%) (HCEC; genistein-treated HCEC) [%],relative whole-cell EPR signal intensity at gav = 2.03 (control = 100%) (MSC; CPZ-treated MSC) [%],tmax for cellular uptake and intracellular transformation (whole-cell EPR) (MSC; MSC) [h],"relative whole-cell EPR signal intensity at gav = 2.03 (control = 100%) (HCEC; HCEC, native FBS replaced with 2% NEM-treated FBS) [%]","relative whole-cell EPR signal intensity at gav = 2.03 (control = 100%) (HCEC; HCEC, pretreatment of NEM 0.5 h, then DNIC–COOMe 0.5 h, reduction) [%]","relative whole-cell EPR signal intensity at gav = 2.03 (control = 100%) (MSC; MSC, native FBS replaced with 20% NEM-treated FBS) [%]","relative whole-cell EPR signal intensity at gav = 2.03 (control = 100%) (MSC; MSC, pretreatment of NEM 0.5 h, then DNIC–COOMe 0.5 h, reduction) [%]"
"O=[N][Fe]1([N]=O)[SH](CCC(=O)O)[Fe]([N]=O)([N]=O)[SH]1CCC(=O)O (stereo not shown) [DNIC–COOH, [(NO)2Fe(μ-SCH2CH2COOH)2Fe(NO)2]]",4,8,77.5 ± 11.1,72.1 ± 5.9,84.2 ± 11.0,2,–,–,–,–
"COC(=O)CC[SH]1[Fe]([N]=O)([N]=O)[SH](CCC(=O)OC)[Fe]1([N]=O)[N]=O (stereo not shown) [DNIC–COOMe, [(NO)2Fe(μ-SCH2CH2COOCH3)2Fe(NO)2]]",2,0.5,–,–,–,0.5,99.9 ± 15.3,35.8 ± 2.3,172.4 ± 24.1,29.7 ± 16.3
